What is called EC50 is the concentration that produces a half-maximal response.

The subject of this assay is T1, Cav2.2 N-type voltage-gated calcium channel.
T1 construct: gene CACNA1B
The experiment in a line: two-electrode voltage clamp of Cav2.[…] expressed in Xenopus oocytes, dose-response. Type of assay: cell-based.

In the case of `CC(=O)OCC1=CO[C@@H](OC(=O)CC(C)(C)OC(C)=O)[C@H]2C1=C[C@H](OC(=O)CC(C)C)[C@]2(O)COC(=O)CC(C)C` [compound 3, valtrate hydrin B8], the EC50 stood at 4.8 µM.
With `CC(=O)OCC1=CO[C@@H](OC(=O)CC(C)C)[C@H]2C1=C[C@H](OC(=O)CC(C)C)[C@]2(O)COC(=O)C(OC(=O)CC(C)C)C(C)C` (stereo partly drawn) [compound 1, (1S, 7S, 8R, 9S)-11-acetoxy-10-[a-(isovaleroxy)isovaleroxy]-1,7-diisovaleroxyvaltrate hydrin], the EC50 worked out at 3.3 µM.

The values above are taken from paper PMC6099110, “Valepotriates From the Roots and Rhizomes of Valeriana jatamansi Jones as Novel N-Type Calcium Channel Antagonists” (Frontiers in Pharmacology, 2018).
